From patent US7531544B2, “Xanthine phosphodiesterase V inhibitors” (Schering Corporation, priority 2000, dated 2009) come the findings set out here.

The assay deals with PDE V (Homo sapiens, UniProt O76074). The assay can be described thus: PDE V enzyme inhibition (PDE V IC50). Type of assay: biochemical.

As for `COc1ccc(Cn2c(N[C@@H]3CCc4ccccc43)nc3c2c(=O)n(C)c(=O)n3C)cc1` [Compound 95], the IC50 is 5 to 10 nM.
`COc1ccc(Cn2c(NC3CCCC3CO)nc3c2c(=O)n(C)c(=O)n3C)cc1` (centres unmarked) [Compound 13]: the IC50 is 15 to 100 nM.
